“And” between values parts separate entries of the source, which are not always exact repeats. Equal entries are not always repeated. Where two headings read alike, the source gives them in different places.

These results are taken from US12123010B2, “Plants having increased tolerance to herbicides” (BASF SE, priority 2017, dated 2024).

Assay [1] concerns the target Variant PPO Enzyme L397Q, F420M (Amaranthus PPO2) (Amaranthus tuberculatus, UniProt Q0NZW9, F420M/L397Q). It is filed as biochemical.
Assay [2] has as its target Variant PPO Enzyme L397Q (Amaranthus PPO2) (Amaranthus tuberculatus, UniProt Q0NZW9, L397Q). It is filed as biochemical.
Assay [3] addresses Variant PPO Enzyme R128A, F420M (Amaranthus PPO2) (Amaranthus tuberculatus, UniProt Q0NZW9, F420M/R128A). It is filed as biochemical.
The target of assay [4] is Variant PPO Enzyme R128A, F420V (Amaranthus PPO2) (Amaranthus tuberculatus, UniProt Q0NZW9, F420V/R128A). The experiment in a line: biochemical. It is filed as biochemical.
Variant PPO Enzyme R128A, F420V (Amaranthus PPO2), sequence (Q0NZW9 1-534 F420V/R128A): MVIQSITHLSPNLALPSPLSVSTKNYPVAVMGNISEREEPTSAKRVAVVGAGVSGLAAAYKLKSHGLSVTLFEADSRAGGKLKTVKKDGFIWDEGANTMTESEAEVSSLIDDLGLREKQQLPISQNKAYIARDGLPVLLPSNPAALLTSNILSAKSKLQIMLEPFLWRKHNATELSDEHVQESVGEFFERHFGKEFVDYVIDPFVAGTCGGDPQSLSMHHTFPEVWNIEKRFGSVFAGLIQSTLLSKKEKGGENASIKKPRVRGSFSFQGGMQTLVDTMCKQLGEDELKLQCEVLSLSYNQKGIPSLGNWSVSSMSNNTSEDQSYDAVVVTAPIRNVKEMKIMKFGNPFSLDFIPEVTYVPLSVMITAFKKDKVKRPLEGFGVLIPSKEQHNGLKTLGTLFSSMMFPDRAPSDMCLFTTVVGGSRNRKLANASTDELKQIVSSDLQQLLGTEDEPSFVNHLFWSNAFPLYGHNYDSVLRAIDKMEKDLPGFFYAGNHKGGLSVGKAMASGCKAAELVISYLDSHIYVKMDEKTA
Assay [5] deals with Variant PPO Enzyme F420V (Amaranthus PPO2) (Amaranthus tuberculatus, UniProt Q0NZW9, F420V). It is filed as biochemical.
Variant PPO Enzyme F420V (Amaranthus PPO2), sequence (Q0NZW9 1-534 F420V): as the sequence (Q0NZW9 1-534 F420V/R128A) above, with A128R counted along it
Assay [6] addresses Variant PPO Enzyme F420M (Amaranthus PPO2) (Amaranthus tuberculatus, UniProt Q0NZW9, F420M). The experiment in a line: biochemical. It is filed as biochemical.
For assay [7], the target named is Variant PPO Enzyme L397Q, F420V (Amaranthus PPO2) (Amaranthus tuberculatus, UniProt Q0NZW9, F420V/L397Q). It is filed as biochemical.
Variant PPO Enzyme L397Q, F420V (Amaranthus PPO2), sequence (Q0NZW9 1-534 F420V/L397Q): as the sequence (Q0NZW9 1-534 F420V/R128A) above, with A128R, L397Q counted along it
In assay [8] the test system is Transgenic T2 Arabidopsis plants harboring PPO inhibitor tolerance trait. The experiment in a line: Lab based germination assay in 48-well plates (Table i). It is filed as in vivo, Arabidopsis thaliana.
For assay [9], the target named is Variant PPO Enzyme L397E, F420M (Amaranthus PPO2) (Amaranthus tuberculatus, UniProt Q0NZW9, F420M/L397E). It is filed as biochemical.
Variant PPO Enzyme L397E, F420M (Amaranthus PPO2), sequence (Q0NZW9 1-534 F420M/L397E): as the sequence (Q0NZW9 1-534 F420V/R128A) above, with A128R, L397E, V420M counted along it
Setting [10] is: read-out: Variant PPO Enzyme IC50.

Variant PPO Enzyme F420M (Amaranthus PPO2), sequence (Q0NZW9 1-534 F420M): as the sequence (Q0NZW9 1-534 F420V/R128A) above, with A128R, V420M counted along it
Variant PPO Enzyme R128A, F420M (Amaranthus PPO2), sequence (Q0NZW9 1-534 F420M/R128A): as the sequence (Q0NZW9 1-534 F420V/R128A) above, with V420M counted along it
Variant PPO Enzyme L397Q (Amaranthus PPO2), sequence (Q0NZW9 1-534 L397Q): as the sequence (Q0NZW9 1-534 F420V/R128A) above, with A128R, L397Q, V420F counted along it
Variant PPO Enzyme L397Q, F420M (Amaranthus PPO2), sequence (Q0NZW9 1-534 F420M/L397Q): as the sequence (Q0NZW9 1-534 F420V/R128A) above, with A128R, L397Q, V420M counted along it

The IC50 is the concentration at which inhibition is half-maximal. As to `CCOC(=O)COc1ncccc1Oc1cc(-n2c(=O)cc(C(F)(F)F)n(C)c2=O)c(F)cc1Cl` [Uracilpyridine 1, ethyl 2-[[3-[2-chloro-4-fluoro-5-[3-methyl-2,6-dioxo-4-(trifluoromethyl)pyrimiclin-1-yl]phenoxy]-2-pyridyl]oxy]acetate], the IC50 is 429 nM in [1]; 2.38 nM in [2]; 61.6 nM in assay [3]; 162 nM and 280 nM in [4] (setting [10]); 66.4 nM in [5]; 38.1 nM and 46.9 nM in assay [6] (setting [10]). This compound returned an IC50 in [7] of 2260 nM. Besides, the “Tolerance Factor” value in [8] (construct AMATU_PPO2_F420M (Amaranthus tuberculatus), in comparison to wild type plants) is given as 110; in [8] (construct AMATU_PPO2_L397D (Amaranthus tuberculatus), in comparison to wild type plants), 50; in assay [8] (construct AMATU_PPO2_L397D_F420V (Amaranthus tuberculatus), in comparison to wild type plants), 41; in assay [8] (construct AMATU_PPO2_R128A_F420M (Amaranthus tuberculatus), in comparison to wild type plants), 50; in assay [8] (construct AMATU_PPO2_R128A_F420V (Amaranthus tuberculatus), in comparison to wild type plants), 75; in [8] (construct AMATU_PPO2_WT (Amaranthus tuberculatus), growth inhibition in comparison to wild type plants), 6.

As to `CCOC(=O)COc1ncccc1Oc1nc(-n2c(=O)cc(C(F)(F)F)n(C)c2=O)c(F)cc1Cl` [Uracilpyridine 2, ethyl 2-[[3-[[3-chloro-5-fluoro-6-[3-methyl-2,6-dioxo-4-(trifluoromethyl)pyrimidin-1-yl]-2-pyridyl]oxy]-2-pyridyl]oxy]acetate], the IC50 in assay [3] came out at 97.4 nM; in assay [4] it was 149 nM; in assay [6], 45.7 nM.

As to `CCOC(=O)COc1ccccc1Oc1nc(-n2c(=O)cc(C(F)(F)F)n(C)c2=O)c(F)cc1Cl` [Uracilpyridine 4, ethyl 2-[2-[[3-chloro-5-fluoro-6-[3-methyl-2,6-dioxo-4-(trifluoromethyl)pyrimidin-1-yl]-2-pyridyl]oxy]phenoxy]acetate], in [3], half-maximal inhibition (IC50) required 69.4 nM.

Regarding `Cn1c(C(F)(F)F)cc(=O)n(-c2nc(Oc3ccccc3OCC(=O)NS(C)(=O)=O)c(Cl)cc2F)c1=O` [Uracilpyridine 10, 2-[2-[[3-chloro-5-fluoro-6-[3-methyl-2,6-dioxo-4-(trifluoromethyl)pyrimidin-1-yl]-2-pyridyl]oxy]phenoxy]-N-methylsulfonyl-acetamide], the IC50 in [3] came out at 1670 nM; in assay [9], 6510 nM.

`CCOC(=O)COc1ccccc1Oc1nc(-n2c(=O)c(C)c(C(F)(F)F)n(C)c2=O)c(F)cc1Cl` [Uracilpyridine 12, ethyl 2-[2-[[3-chloro-6-[3,5-dimethyl-2,6-dioxo-4-(trifluoromethyl)pyrimidin-1-yl]-5-fluoro-2-pyridyl]oxy]phenoxy]acetate]: the IC50 in assay [3] worked out at 114 nM.

On to `C=CCOC(=O)COc1ncccc1Oc1nc(-n2c(=O)cc(C(F)(F)F)n(C)c2=O)c(F)cc1Cl` [Uracilpyridine 13, allyl 2-[[3-[[3-chloro-5-fluoro-6-[3-methyl-2,6-dioxo-4-(trifluoromethyl)pyrimidin-1-yl]-2-pyridyl]oxy]-2-pyridyl]oxy]acetate], for which 91.8 nM corresponded to half-maximal inhibition in [3] (IC50).

As for `C#CCOC(=O)COc1ncccc1Oc1nc(-n2c(=O)cc(C(F)(F)F)n(C)c2=O)c(F)cc1Cl` [Uracilpyridine 14, prop-2-ynyl 2-[[3-[[3-chloro-5-fluoro-6-[3-methyl-2,6-dioxo-4-(trifluoromethyl)pyrimidin-1-yl]-2-pyridyl]oxy]-2-pyridyl]oxy]acetate], inhibition in assay [3] was half-maximal at 158 nM (IC50).

In assay [3], `Cn1c(C(F)(F)F)cc(=O)n(-c2nc(Oc3cccnc3OCC(=O)OCC3CC3)c(Cl)cc2F)c1=O` [Uracilpyridine 15, cyclopropylmethyl 2-[[3-[[3-chloro-5-fluoro-6-[3-methyl-2,6-dioxo-4-(trifluoromethyl)pyrimidin-1-yl]-2-pyridyl]oxy]-2-pyridyl]oxy]acetate] gave an IC50 of 42.9 nM.

On to `Cn1c(C(F)(F)F)cc(=O)n(-c2nc(Oc3cccnc3OCC(=O)OCC(F)F)c(Cl)cc2F)c1=O` [Uracilpyridine 16, 2,2-difluoroethyl 2-[[3-[[3-chloro-5-fluoro-6-[3-methyl-2,6-dioxo-4-(trifluoromethyl)pyrimidin-1-yl]-2-pyridyl]oxy]-2-pyridyl]oxy]acetate], for which the IC50 in assay [3] came out at 89 nM.

On to `CC(C)COC(=O)COc1ncccc1Oc1nc(-n2c(=O)cc(C(F)(F)F)n(C)c2=O)c(F)cc1Cl` [Uracilpyridine 17, isobutyl 2-[[3-[[3-chloro-5-fluoro-6-[3-methyl-2,6-dioxo-4-(trifluoromethyl)pyrimidin-1-yl]-2-pyridyl]oxy]-2-pyridyl]oxy]acetate], for which, in [3], the IC50 is 46.1 nM.

Compound `CCOC(=O)COC(=O)COc1ncccc1Oc1nc(-n2c(=O)cc(C(F)(F)F)n(C)c2=O)c(F)cc1Cl` [Uracilpyridine 18, (2-ethoxy-2-oxo-ethyl) 2-[[3-[[3-chloro-5-fluoro-6-[3-methyl-2,6-dioxo-4-(trifluoromethyl)pyrimidin-1-yl]-2-pyridyl]oxy]-2-pyridyl]oxy]acetate] had an IC50 in assay [3] of 116 nM.

Compound `COCCOC(=O)COc1ncccc1Oc1nc(-n2c(=O)cc(C(F)(F)F)n(C)c2=O)c(F)cc1Cl` [Uracilpyridine 19, 2-methoxyethyl 2-[[3-[[3-chloro-5-fluoro-6-[3-methyl-2,6-dioxo-4-(trifluoromethyl)pyrimidin-1-yl]-2-pyridyl]oxy]-2-pyridyl]oxy]acetate] yielded an IC50 in assay [3] of 125 nM.
